Experimental data: patent US9295732B2, “Conjugated TLR7 and/or TLR8 and TLR2 polycationic agonists” (CAYLA, priority 2013, dated 2016)

What was measured:
human TLR7 = molecular target: T1, human TLR7 (Homo sapiens, UniProt Q9NYK1); test: HEK-Blue hTLR7 NF-κB/AP-1 SEAP reporter assay; assay type: cell-based; conditions: HEK-Blue hTLR7 cells, 10 μg/mL to 10 pg/ml, 24 hours, OD at 655 nm, FIG. 1
T1 construct: host or cells: HEK293 (HEK-Blue™ hTLR7)
T1 sequence (Q9NYK1 27-1049): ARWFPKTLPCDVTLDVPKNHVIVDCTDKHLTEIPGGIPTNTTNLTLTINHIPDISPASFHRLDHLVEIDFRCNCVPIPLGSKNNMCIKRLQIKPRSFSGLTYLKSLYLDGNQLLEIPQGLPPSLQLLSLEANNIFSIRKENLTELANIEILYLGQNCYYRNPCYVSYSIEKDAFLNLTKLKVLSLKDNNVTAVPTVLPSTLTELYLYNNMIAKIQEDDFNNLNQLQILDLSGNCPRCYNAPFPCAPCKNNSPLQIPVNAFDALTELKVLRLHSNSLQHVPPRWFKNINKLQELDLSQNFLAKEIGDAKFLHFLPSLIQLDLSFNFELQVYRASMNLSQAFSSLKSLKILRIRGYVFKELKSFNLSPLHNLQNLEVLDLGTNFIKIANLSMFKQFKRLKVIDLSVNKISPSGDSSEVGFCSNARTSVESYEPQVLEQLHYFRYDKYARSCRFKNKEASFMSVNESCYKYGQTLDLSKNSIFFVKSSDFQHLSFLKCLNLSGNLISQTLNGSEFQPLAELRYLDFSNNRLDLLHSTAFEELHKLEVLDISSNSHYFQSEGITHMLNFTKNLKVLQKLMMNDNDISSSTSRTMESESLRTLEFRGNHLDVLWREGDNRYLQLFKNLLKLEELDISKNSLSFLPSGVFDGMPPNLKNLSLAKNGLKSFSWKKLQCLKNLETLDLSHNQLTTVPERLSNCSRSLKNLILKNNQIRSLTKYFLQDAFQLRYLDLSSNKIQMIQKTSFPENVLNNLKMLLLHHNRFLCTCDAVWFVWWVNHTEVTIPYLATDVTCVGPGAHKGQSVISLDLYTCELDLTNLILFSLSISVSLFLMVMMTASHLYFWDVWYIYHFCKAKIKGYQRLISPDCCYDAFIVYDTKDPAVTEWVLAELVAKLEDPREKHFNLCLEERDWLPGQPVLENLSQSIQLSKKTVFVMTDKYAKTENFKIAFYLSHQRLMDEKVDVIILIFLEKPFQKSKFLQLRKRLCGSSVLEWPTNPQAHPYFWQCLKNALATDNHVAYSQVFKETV
Protocol: (§1) Cell-based assays were carried out using TLR7 and TLR2 reporter cell lines (InvivoGen). The reporter cell lines are engineered HEK293 cells, a human embryonic kidney cell line (ATCC, CRL-1573) that stably express either murine TLR7 (HEK-Blue™ mTLR7) or human TLR7 (HEK-Blue™ hTLR7) or human TLR2 (HEK-Blue™ hTLR2) with an NF-κB-inducible secreted embryonic alkaline phosphatase (SEAP) as the reporter gene. The SEAP reporter gene is under the control of the NF-κB and AP-1-inducible promoter, which, upon treatment with a corresponding TLR ligand and activation of NF-κB and AP-1, induces the production of SEAP. Detection of SEAP is measured following culturing cells in HEK-Blue™ Detection media (InvivoGen). HEK-Blue™ Detection contains a SEAP substrate that when hydrolysed by SEAP produces a colorimetric change allowing for detection of SEAP as the protein is secreted. […] These assays were carried out using RAW-Blue™ Cells (InvivoGen), derived from RAW 264.7 mouse leukemic monocyte macrophage cell line (ATCC, CRL 2278) stably overexpressing a NF-B/AP-1 inducible SEAP reporter constructs.
(§2) To perform the assay, cells were seeded on 96 well microliter plates at 50,000 or 100,000 cells per well for HEK-Blue™ Cells and RAW-Blue™ Cells respectively, and cultured at 37° C. in the presence of the conjugated compounds The TLR7-TLR2 polyamine molecules were prepared as follows: First, stock solutions of the conjugated compounds of the invention were prepared in ethanol or water to a concentration of 10 mg/ml.
(§3) The working dilutions of the conjugated TLR7-TLR2 polyamine agonists made up in water or PBS were directly added to the reporter cell lines at a final concentration ranging from 10 μg/mL to 10 pg/ml and incubated at 37° C. for 24 hours. After 24 hours of incubation, the effect on reporter gene activity was determined by reading the OD at 655 nm using iMark™ Microplate Reader (BIO-RAD).

murine TLR7 = molecular target: T2, murine TLR7 (Mus musculus, UniProt P58681); test: HEK-Blue mTLR7 NF-κB/AP-1 SEAP reporter assay; assay type: cell-based; conditions: HEK-Blue mTLR7 cells, 10 μg/mL to 10 pg/ml, 24 hours, OD at 655 nm, FIG. 2
T2 construct: host or cells: HEK293 (HEK-Blue™ mTLR7)
T2 sequence (P58681 27-1050): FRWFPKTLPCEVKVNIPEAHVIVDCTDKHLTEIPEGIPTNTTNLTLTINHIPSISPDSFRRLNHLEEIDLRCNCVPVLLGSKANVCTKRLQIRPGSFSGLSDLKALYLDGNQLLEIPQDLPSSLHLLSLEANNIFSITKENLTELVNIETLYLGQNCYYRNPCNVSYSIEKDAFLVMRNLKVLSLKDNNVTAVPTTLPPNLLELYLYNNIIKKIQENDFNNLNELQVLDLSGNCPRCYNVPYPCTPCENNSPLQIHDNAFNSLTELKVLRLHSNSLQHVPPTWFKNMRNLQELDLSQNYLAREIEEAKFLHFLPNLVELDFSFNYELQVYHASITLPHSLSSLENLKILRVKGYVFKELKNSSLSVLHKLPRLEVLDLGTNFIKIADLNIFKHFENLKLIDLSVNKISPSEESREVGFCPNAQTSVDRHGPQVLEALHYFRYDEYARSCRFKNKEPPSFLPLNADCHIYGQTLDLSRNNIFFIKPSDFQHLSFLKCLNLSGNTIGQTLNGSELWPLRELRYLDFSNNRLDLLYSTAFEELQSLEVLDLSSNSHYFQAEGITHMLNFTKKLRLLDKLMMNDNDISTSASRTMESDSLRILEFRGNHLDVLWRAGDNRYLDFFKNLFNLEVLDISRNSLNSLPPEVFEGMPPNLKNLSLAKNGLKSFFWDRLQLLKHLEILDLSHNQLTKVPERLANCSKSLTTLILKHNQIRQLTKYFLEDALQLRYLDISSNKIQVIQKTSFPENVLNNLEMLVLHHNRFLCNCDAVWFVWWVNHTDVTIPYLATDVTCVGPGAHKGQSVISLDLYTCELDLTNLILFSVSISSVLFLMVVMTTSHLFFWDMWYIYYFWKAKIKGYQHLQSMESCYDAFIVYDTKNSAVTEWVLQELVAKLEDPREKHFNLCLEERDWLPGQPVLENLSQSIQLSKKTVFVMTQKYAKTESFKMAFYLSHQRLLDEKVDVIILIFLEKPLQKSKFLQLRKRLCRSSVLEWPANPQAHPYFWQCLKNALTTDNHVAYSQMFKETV
Protocol: as §1, §2, §3

human TLR2 = molecular target: T3, human TLR2 (Homo sapiens, UniProt O60603); test: HEK-Blue hTLR2 NF-κB/AP-1 SEAP reporter assay; assay type: cell-based; conditions: HEK-Blue hTLR2 cells, 10 μg/mL to 10 pg/ml, 24 hours, OD at 655 nm, FIG. 3
T3 construct: host or cells: HEK293 (HEK-Blue™ hTLR2)
Protocol: as §1, §2, §3

[1] = test system: endogenous TLR2 and TLR7 in RAW-Blue™ Cells; test: RAW-Blue Cells NF-κB/AP-1 SEAP reporter assay; assay type: cell-based, mouse; conditions: 24 hours, OD at 655 nm, FIG. 4
Protocol: as §1, §2, §3

plasmid DNA (pDNA) = test: Gel shift (mobility shift) assay of pDNA complexation; assay type: binding; conditions: pDNA:molecule ratio 3:24 (w:w), 0.8% agarose gel, compared to pDNA alone
Protocol: Then, 10 μl of pDNA:TLR7-TLR2 polyamine molecule complexes and 2 μl of charge buffer were mixed and loaded into wells of a 0.8% agarose gel. Samples were migrated through the gel in TAE buffer under 135 voltage for 21 mins and the migration of the pDNA was visualized following ethidium bromide staining under UV light. The ability of TLR7-TLR2 polyamine molecules to complex/associate with the pDNA was identified by partial or complete retardation of the pDNA migration toward the anode in the gel compared to pDNA alone. […] Ethidium bromide intercalation of pDNA in complex with molecules allowed visualization of complexed pDNA as a smear in the wells of the gel.

T3 sequence (O60603 21-784): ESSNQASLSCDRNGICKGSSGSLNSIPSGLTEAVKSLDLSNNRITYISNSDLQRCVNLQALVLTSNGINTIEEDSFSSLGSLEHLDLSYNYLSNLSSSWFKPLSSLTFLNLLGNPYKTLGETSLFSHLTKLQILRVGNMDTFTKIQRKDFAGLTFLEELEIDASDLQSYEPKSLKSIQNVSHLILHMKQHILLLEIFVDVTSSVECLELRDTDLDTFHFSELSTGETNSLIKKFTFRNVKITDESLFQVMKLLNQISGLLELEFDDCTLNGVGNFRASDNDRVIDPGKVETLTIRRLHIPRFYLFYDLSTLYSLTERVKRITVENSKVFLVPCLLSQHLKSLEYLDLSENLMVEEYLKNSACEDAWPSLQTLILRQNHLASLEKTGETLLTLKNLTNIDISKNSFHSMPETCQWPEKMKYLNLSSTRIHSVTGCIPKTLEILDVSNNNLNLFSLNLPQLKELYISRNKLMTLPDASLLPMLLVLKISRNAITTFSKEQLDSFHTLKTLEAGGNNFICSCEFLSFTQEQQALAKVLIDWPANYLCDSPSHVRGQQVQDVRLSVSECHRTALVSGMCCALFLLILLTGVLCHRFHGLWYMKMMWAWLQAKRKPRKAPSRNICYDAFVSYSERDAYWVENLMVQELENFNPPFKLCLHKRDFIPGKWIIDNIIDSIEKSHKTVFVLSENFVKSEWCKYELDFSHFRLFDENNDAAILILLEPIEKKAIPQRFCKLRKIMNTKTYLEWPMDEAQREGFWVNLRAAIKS

Row | SMILES | ability to activate hTLR7 (human TLR7) | ability to activate mTLR7 (murine TLR7) | ability to activate hTLR2 (human TLR2) | ability to activate endogenous TLR2 and TLR7 in RAW-Blue Cells [1] | ability to complex pDNA (retardation of pDNA migration in agarose gel) (plasmid DNA (pDNA))
1 | CCCCCCCCCCCCCCCC(=O)N[C@@H](CSCC(COC(=O)CCCCCCCCCCCCCCC)OC(=O)CCCCCCCCCCCCCCC)C(=O)N[C@@H](CO)C(=O)N[C@@H](CCCCN)C(=O)N[C@@H](CCCCNC(=O)c1ccc(Cn2c(O)nc3c(N)nc(NCCCC)nc32)cc1)C(=O)N[C@@H](CCCCN)C(=O)N[C@@H](CCCCN)C(=O)O (stereo partly drawn) [CL536, (2S,5S,8S,11S,14S,17R)-8-(4-(4-((6-amino-2-(butylamino)-8-hydroxy-9H-purin-9-yl)methyl)benzamido)butyl)-2,5,11-tris(4-aminobutyl)-14-(hydroxymethyl)-4,7,10,13,16,24-hexaoxo-17-palmitamido-21-(palmitoyloxy)-23-oxa-19-thia-3,6,9,12,15-pentaazanonatriacontan-1-oic acid] | activate hTLR7 | activate mTLR7 | activate hTLR2 | activate endogenous TLR2 and TLR7 | inability to migrate through an agarose gel
2 | CCCCCCCCCCCCCCCC(=O)N[C@@H](CSCC(COC(=O)CCCCCCCCCCCCCCC)OC(=O)CCCCCCCCCCCCCCC)C(=O)N[C@@H](CO)C(=O)N[C@@H](CCCCN)C(=O)N[C@@H](CCCCN)C(=O)N[C@@H](CCCCNC(=O)c1ccc(Cn2c(O)nc3c(N)nc(NCCCC)nc32)cc1)C(=O)N[C@@H](CCCCN)C(=O)O (stereo partly drawn) [CL535, (2S,5S,8S,11S,14S,17R)-5-(4-(4-((6-amino-2-(butylamino)-8-hydroxy-9H-purin-9-yl)methyl)benzamido)butyl)-2,8,11-tris(4-aminobutyl)-14-(hydroxymethyl)-4,7,10,13,16,24-hexaoxo-17-palmitamido-21-(palmitoyloxy)-23-oxa-19-thia-3,6,9,12,15-pentaazanonatriacontan-1-oic acid] | activate hTLR7 | activate mTLR7 | activate hTLR2 | activate endogenous TLR2 and TLR7 | inability to migrate through an agarose gel
3 | CCCCCCCCCCCCCCCC(=O)OCC(CSC[C@H](N)C(=O)N[C@@H](CO)C(=O)N[C@@H](CCCCN)C(=O)N[C@@H](CCCCN)C(=O)N[C@@H](CCCCNC(=O)c1ccc(Cn2c(O)nc3c(N)nc(NCCCC)nc32)cc1)C(=O)N[C@@H](CCCCN)C(=O)O)OC(=O)CCCCCCCCCCCCCCC (stereo partly drawn) [CL530, (2S,5S,8S,11S,14S,17R)-17-amino-5-(4-(4-((6-amino-2-(butylamino)-8-hydroxy-9H-purin-9-yl)methyl)benzamido)butyl)-2,8,11-tris(4-aminobutyl)-14-(hydroxymethyl)-4,7,10,13,16,24-hexaoxo-21-(palmitoyloxy)-23-oxa-19-thia-3,6,9,12,15-pentaaza nonatriacontan-1-oic acid] | activate hTLR7 | activate mTLR7 | activate hTLR2 | activate endogenous TLR2 and TLR7 | inability to migrate through an agarose gel
4 | CCCCCCCCCCCCCCCC(=O)OCC(CSC[C@H](N)C(=O)N[C@@H](CO)C(=O)N[C@@H](CCCCN)C(=O)N[C@@H](CCCCNC(=O)c1ccc(Cn2c(O)nc3c(N)nc(NCCCC)nc32)cc1)C(=O)N[C@@H](CCCCN)C(=O)N[C@@H](CCCCN)C(=O)O)OC(=O)CCCCCCCCCCCCCCC (stereo partly drawn) [CL531, (2S,5S,8S,11S,14S,17R)-17-amino-8-(4-(4-((6-amino-2-(butylamino)-8-hydroxy-9H-purin-9-yl)methyl)benzamido)butyl)-2,5,11-tris(4-aminobutyl)-14-(hydroxymethyl)-4,7,10,13,16,24-hexaoxo-21-(palmitoyloxy)-23-oxa-19-thia-3,6,9,12,15-pentaaza nonatriacontan-1-oic acid] | activate hTLR7 | activate mTLR7 | activate hTLR2 | activate endogenous TLR2 and TLR7 | inability to migrate through an agarose gel
5 | CCCCCCCCCCCCCCCC(=O)OCC(CSC[C@H](N)C(=O)Nc1ccc(Cn2c(O)nc3c(N)nc(NCCCC)nc32)cc1)OC(=O)CCCCCCCCCCCCCCC (stereo partly drawn) [CL401, reference compound] | – | – | – | – | lacks the ability to complex pDNA
